US20070122503A1, “USE OF EXTRACTS FROM CIMICIFUGA RACEMOSA AND OF TECTORIGENIN AS AN ESTROGEN-TYPE, ORGANOSELECTIVE MEDICAMENT HAVING NO UTEROTROPHIC EFFECT” (BIONORICA ARZNEIMITTEL GMBH, priority 1998, published 2007)

Tests used:
Type in all cases: in vivo, rat
[1] = test system: mRNA for collagen 1 and osteocalcin; experiment: Repeated administration of Cimicifuga racemosa: mRNA expression in bone (femur) (RT-PCR); conditions: 7 days s.c., semi-quantitative RT-PCR
Procedure: (§6) 14 days following ovarectomy at the earliest, the animals have the respective test substance injected subcutaneously in a dose of 62.5 mg Cimicifuga racemosa/rat or 8 pg estradiol/rat once daily in the morning over a period of 7 days. Both substances were dissolved in 5% cremophor, the control animals only received the vehicle.
(§7) Following decapitation of the animals, brains, uterus and femur were prepared for mRNA-recovery. […] The expression of the estrogen-regulated genes in the above identified organs was determined by means of semi-quantitative RT-PCR.
(§8) As another marker for the estrogenic effect, the activation of mRNA of estrogen-inducible proteins was measured. What was measured here was tissue from uterus, from bone tissue (femur) and from the preoptic region of the hypothalamus.

[2] = test system: collagen-1A1, osteocalcin, IGF1 and TGFβ-mRNA, CCO gene in femur head; experiment: Subacute test 7 days s.c. (Belamcanda sinensis): mRNA expression in extracts of the femur head; conditions: 7 days daily s.c.
Procedure: In extracts of the femur head, the collagen-1A1, osteocalcin, IGF1 and TGFβ-mRNA expression was determined.

[3] = test system: uterine VEGF gene, CCO gene; experiment: Subacute test 7 days s.c. (Belamcanda sinensis): gene expression in uterine mRNA extract; conditions: after one-week treatment, 10 μg estradiol s.c. daily
Procedure: (§1) All experiments described below were carried out with ovariectomized Sprague-Dawley rats (=ovx rats) having a weight between 240 and 280 g.
The effects of repeated administration of estradiol, Belamcanda sinensis extract and vehicle on overall weight, uterus weight, hormone level and gene activation of uterus and bone were examined on ovariectomized rats after daily s.c. application through seven days.
8 animals each per test group (24 altogether) were daily injected subcutaneously between 8:00 and 9:00 a.m. with 62.5 mg Belamcanda sinensis extract and 10 μg estradiol or the solvent (cremophor 5%, 1 ml), respectively. 6 h after the last application, the animals were decapitated and from every animal the aorta, the uterus and the left femur head were removed, cleaned, and frozen in liquid nitrogen.

[4] = test system: ovariectomized Sprague-Dawley rats; experiment: Subacute test, daily s.c. injection through 7 days (Belamcanda sinensis): body weight, uterus weight, serum LH; conditions: 7 days daily s.c., 62.5 mg extract or 10 μg estradiol
Procedure: In the blood samples, LH and the estradiol immunoreactivity were determined.

[5] = test system: mRNA for IGF1 and complement factor C3; experiment: Repeated administration of Cimicifuga racemosa: mRNA expression in uterus (RT-PCR); conditions: 7 days s.c.; semi-quantitative RT-PCR
Procedure: as §6, §7
What was measured here was tissue from uterus, from bone tissue (femur) and from the preoptic region of the hypothalamus.

[6] = test system: ovariectomized Sprague-Dawley rats; experiment: Repeated s.c. administration of Cimicifuga racemosa over 7 days: uterus weight, vagina, LH; conditions: 7 days s.c. once daily
Procedure: as §6
The LH concentration in the blood of the animals was determined by means of RIA.

[7] = test system: uterine VEGF, IGF1 and C3 genes, CCO gene; experiment: Acute experiment, single i.v. injection: uterine gene expression; conditions: six hours after single i.v. injection; vs controls
Procedure: (§2) All experiments described below were carried out with ovariectomized Sprague-Dawley rats (=ovx rats) having a weight between 240 and 280 g. […] On the day of the experiment, 6 blood samples were taken at 10-min intervals. Immediately following taking of the 6th sample, 62.5 mg of the Belamcanda sinensis extract or 10 μg 17-β-estradiol (E2) or the solvent (5%) cremophor in isotonic NaCl 1 ml), respectively, were injected intravenously, and blood samples were taken for another 2 hours in 10-minute intervals. 6 hours after the intravenous administration, the animals were decapitated, blood was obtained and the uteri removed, weighed and deep-frozen in liquid nitrogen.

[8] = test system: mRNA for the estrogen receptor; experiment: Repeated administration of Cimicifuga racemosa: mRNA expression in preoptic region of the hypothalamus (RT-PCR); conditions: 7 days s.c.; semi-quantitative RT-PCR
Procedure: Both substances were dissolved in 5% cremophor, the control animals only received the vehicle.
as §7, §8

[9] = test system: ovariectomized Sprague-Dawley rats; experiment: Acute experiment, single i.v. injection of Belamcanda sinensis extract: serum LH
Procedure: as §2, with “g. The onset of the effect of the estradiol-type effect of Belamcanda sinensis extract occurs very quickly. Even after a single i.v. administration of vehicle, estradiol and Belamcanda sinensis extract to ovx rats, pulsatility ceases both under E2 and under Belamcanda sinensis. […] Cremophor is an emulsifier on the basis of polyethoxylated castor oil derivatives. The results are represented in FIG. 2.” for “g.”

[10] = test system: ovariectomized Sprague-Dawley rats; experiment: One-time i.v. administration of tectorigenin: LH levels in the blood; conditions: single i.v. 7 mg tectorigenin
Procedure: as §1
(§3) Following a single administration of tectorigenin, the time development of influence on the LH levels in the blood and the estradiol-type immunoreactivity were determined. The concentration of tectorigenin in the blood of the animals, determined with the aid of E2-RIA, after 20 min corresponds to about 100 pg equivalent estradiol.
(§4) Execution: OVX rats had catheters placed in the vena jugularis externa under ether anesthesia 24 hours before the beginning of the experiment, in accordance with the method of Harms and Ojeda (Harms P G; Ojeda S R: A rapid and simple procedure for chronic cannulation of the rat jugular vein. J. Appl. Physiol. (1974) 36: 391-392). The tube end was positioned in a skin pocket in the neck. In order not to have to touch the animals for obtaining the blood samples, the catheter was prolonged with the aid of a silicone tube. Catheter and tube were rinsed with Ringer solution containing 50 IU heparin/ml.
Blood samples of 100 μl each were drawn from the animals at 10-min intervals, and the withdrawn volume replaced with Ringer/heparin solution. After the 6th sample, 1.0 ml of the respective test solution was applied intravenously. As test solutions there were used: 2% cremophor (=vehicle solution), tectorigenin 7 mg/ml vehicle, 17-β-estradiol 10 μg/ml vehicle. Blood was taken at ten-minute intervals through additional 140 min.
The blood samples thus obtained were filled into a 0.5 ml Eppendorf reaction vessel containing 10 μl heparin-Losung (5000 IU/ml, Liquemin), centrifuged for 10 min at 10 000*g, and the plasma stored at −20° C. until performance of the radioimmunoassays.
(§5) The RIAs for LH and Prolaktin are based on antisera, reference and iodisation preparations from NIH (Bethesda, Md., USA). The concentrations of estradiol and of the cross-reactive isoflavones were measured with the aid of an RIA from DPC, Bad Nauheim.

[11] = One-time i.v. administration of tectorigenin: estradiol-type immunoreactivity in blood (E2-RIA); conditions: after 20 min; single i.v. 7 mg tectorigenin; ovx rats
Procedure: as §1, §3
as §4, with “heparin/ml. […]” for “heparin/ml.”
as §5

SMILES: C[C@]12CC[C@@H]3c4ccc(O)cc4CC[C@H]3[C@@H]1CC[C@@H]2O [E2, 17-β-estradiol]
- expression of the mRNA for osteocalcin in bone tissue [1]: reduces, in analogy with estradiol
- expression of the mRNA for the bone-specific collagen 1 in bone tissue [1]: reduces, in analogy with estradiol
- IGF1 mRNA expression in femur head [2]: significantly inhibited
- TGFβ mRNA expression in femur head [2]: significantly inhibited
- collagen-1A1 mRNA expression in femur head [2]: significantly inhibited
- constitutive CCO gene expression in femur head [2]: without having an influence
- osteocalcin mRNA expression in femur head [2]: significantly inhibited
- gene expression of VEGF in uterine mRNA extract [3]: 149 % of the control value
- average body weights ([4]; vs cremophor): significantly lighter
- uterus weights ([4]; vs cremophor): more than tripled
- serum LH levels ([4]; vs cremophor controls): more marked
- mRNA for IGF1 in the uterus [5]: increases
- mRNA for complement factor C3 in the uterus [5]: increases
- LH concentrations in the blood, mean values ([6]; 62.5 mg Cimicifuga racemosa/rat or 8 pg estradiol/rat, n=8, RIA): 7.83 ng/mL
- Uterus weights (wet), mean values ([6]; 62.5 mg Cimicifuga racemosa/rat or 8 pg estradiol/rat, n=8, ovx rats): 702.1 mg
- LH levels compared with vehicle (in words) ([6]; ovx rats): lowered significantly
- hornification of the vaginal epithelium tissue ([6]; ovx rats): quite contrary
- uterus weight compared with vehicle (in words) ([6]; ovx rats): more than three times the weight
- expression of the uterine C3 gene [7]: clear increase
- expression of the uterine IGF1 gene [7]: clear increase
- expression of the uterine VEGF gene [7]: clear increase
- expression of the mRNA for the estrogen receptor in the preoptic region of the hypothalamus [8]: stimulate
- LH pulsatility ([9]; 62.5 mg extract or 10 μg E2, ovx rats): ceases
- serum LH levels ([9]; 62.5 mg extract or 10 μg E2, prior to and 2 hours after injection, vs previous values and cremophor controls): significant inhibitions

SMILES: COc1c(O)cc2occ(-c3ccc(O)cc3)c(=O)c2c1O [tectorigenin]
- kinetics of the LH reduction up to 60 min following i.v. administration ([10]; compared with 10 μg 17-β-estradiol): precisely correspond to the one of estradiol
- LH levels in the blood ([10]; ovx rats): rapid LH reduction
- course of LH after 60 min following i.v. administration ([10]; sampling to 140 min): do not result in further reduction but slowly increases again
- concentration of tectorigenin in the blood, determined with E2-RIA [11]: about 100 pg equivalent estradiol
